ChEMBL document CHEMBL1687830, “Evaluation of ceftazidime and NXL104 in two murine models of infection due to KPC-producing Klebsiella pneumoniae” (2011)
Values after ≈ are worked out from the molar mass of the structure shown.

How the values were obtained:
Assay type in all cases: functional
Klebsiella pneumoniae [1] = test: Antimicrobial activity against carbapenemases KPC-producing Klebsiella pneumoniae VA-406 infected in sc dosed CD-1 mouse
Klebsiella pneumoniae [2] = test: Antimicrobial activity against Klebsiella pneumoniae ATCC 13883 infected in sc dosed CD-1 mouse septicemia infection model at 2:1 compound to NXL104 beta-lactamase inhibitor ratio by acute lethal septicemia analysis; details: ATCC 13883, sc
Klebsiella pneumoniae [3] = test: Antimicrobial activity against carbapenemases KPC-producing Klebsiella pneumoniae VA-406 infected in sc dosed CD-1 mouse in presence of 2 ug/ml NXL104 beta-lactamase inhibitor
Klebsiella pneumoniae [4] = test: Antimicrobial activity against carbapenemases KPC-producing Klebsiella pneumoniae VA-406 infected in CD-1 mouse thigh infection model assessed as change in log10 CFU reduction per thigh treated 1.5 hr post infection at >=256:64 mg/kg, sc compound to NXL104 beta-lactamase inhibitor ratio after 24 hrs by acute lethal septicemia analysis (reference value: 8.67 log10CFU/thigh)
Klebsiella pneumoniae [5] = test: Antimicrobial activity against carbapenemases KPC-producing Klebsiella pneumoniae VA-406 infected in CD-1 mouse thigh infection model assessed as change in log10 CFU reduction per thigh treated 1.5 hr post infection at >=16:4 mg/kg, sc compound to NXL104 beta-lactamase inhibitor ratio after 24 hrs by acute lethal septicemia analysis (reference value: 8.67 log10CFU/thigh)
Klebsiella pneumoniae [6] = test: Antimicrobial activity against carbapenemases KPC-producing Klebsiella pneumoniae VA-406 infected in CD-1 mouse thigh infection model assessed as change in log10 CFU reduction per thigh treated 1.5 hr post infection at >=128:32 mg/kg, sc compound to NXL104 beta-lactamase inhibitor ratio after 24 hrs by acute lethal septicemia analysis (reference value: 8.67 log10CFU/thigh)
Klebsiella pneumoniae [7] = test: Antimicrobial activity against carbapenemases KPC-producing Klebsiella pneumoniae VA-361 infected in sc dosed CD-1 mouse
Klebsiella pneumoniae [8] = test: Antimicrobial activity against carbapenemases KPC-producing Klebsiella pneumoniae VA-361 infected in sc dosed CD-1 mouse septicemia infection model at 4:1 compound to NXL104 beta-lactamase inhibitor ratio by acute lethal septicemia analysis; details: VA-361, sc
Klebsiella pneumoniae [9] = test: Antimicrobial activity against carbapenemases KPC-producing Klebsiella pneumoniae VA-406 infected in sc dosed CD-1 mouse septicemia infection model at 16:1 compound to NXL104 beta-lactamase inhibitor ratio by acute lethal septicemia analysis; details: VA-406, sc
Klebsiella pneumoniae [10] = test: Antimicrobial activity against carbapenemases KPC-producing Klebsiella pneumoniae VA-361 infected in sc dosed CD-1 mouse in presence of 4 ug/ml NXL104 beta-lactamase inhibitor
Klebsiella pneumoniae [11] = test: Antimicrobial activity against carbapenemases KPC-producing Klebsiella pneumoniae VA-406 infected in sc dosed CD-1 mouse in presence of 4 ug/ml Tazobactam beta-lactamase inhibitor
Klebsiella pneumoniae [12] = test: Antimicrobial activity against carbapenemases KPC-producing Klebsiella pneumoniae VA-361 infected in CD-1 mouse thigh infection model assessed as change in log10 CFU reduction per thigh treated 1.5 hr post infection at >=256:64 mg/kg, sc compound to NXL104 beta-lactamase inhibitor ratio after 24 hrs by acute lethal septicemia analysis (reference value: 8.93 log10CFU/thigh)
Klebsiella pneumoniae [13] = test: Antimicrobial activity against carbapenemases KPC-producing Klebsiella pneumoniae VA-406 infected in sc dosed CD-1 mouse septicemia infection model by acute lethal septicemia analysis; details: VA-406, sc
Klebsiella pneumoniae [14] = test: Antimicrobial activity against carbapenemases KPC-producing Klebsiella pneumoniae VA-361 infected in sc dosed CD-1 mouse septicemia infection model at 2:1 compound to NXL104 beta-lactamase inhibitor ratio by acute lethal septicemia analysis; details: VA-361, sc
Klebsiella pneumoniae [15] = test: Antimicrobial activity against carbapenemases KPC-producing Klebsiella pneumoniae VA-361 infected in sc dosed CD-1 mouse septicemia infection model at 16:1 compound to NXL104 beta-lactamase inhibitor ratio by acute lethal septicemia analysis; details: VA-361, sc
Klebsiella pneumoniae [16] = test: Antimicrobial activity against carbapenemases KPC-producing Klebsiella pneumoniae VA-361 infected in sc dosed CD-1 mouse in presence of 2 ug/ml NXL104 beta-lactamase inhibitor
Klebsiella pneumoniae [17] = test: Antimicrobial activity against carbapenemases KPC-producing Klebsiella pneumoniae VA-406 infected in sc dosed CD-1 mouse in presence of 1 ug/ml NXL104 beta-lactamase inhibitor
Klebsiella pneumoniae [18] = test: Antimicrobial activity against carbapenemases KPC-producing Klebsiella pneumoniae VA-406 infected in sc dosed CD-1 mouse in presence of 4 ug/ml cavulanate beta-lactamase inhibitor
Klebsiella pneumoniae [19] = test: Antimicrobial activity against Klebsiella pneumoniae ATCC 13883 infected in sc dosed CD-1 mouse septicemia infection model at 4:1 compound to NXL104 beta-lactamase inhibitor ratio by acute lethal septicemia analysis; details: ATCC 13883, sc
Klebsiella pneumoniae [20] = test: Antimicrobial activity against carbapenemases KPC-producing Klebsiella pneumoniae VA-406 infected in CD-1 mouse thigh infection model assessed as change in log10 CFU reduction per thigh treated 1.5 hr post infection at >=32:8 mg/kg, sc compound to NXL104 beta-lactamase inhibitor ratio after 24 hrs by acute lethal septicemia analysis (reference value: 8.67 log10CFU/thigh)
Klebsiella pneumoniae [21] = test: Antimicrobial activity against Klebsiella pneumoniae ATCC 13883 infected in sc dosed CD-1 mouse septicemia infection model at 8:1 compound to NXL104 beta-lactamase inhibitor ratio by acute lethal septicemia analysis; details: ATCC 13883, sc
Klebsiella pneumoniae [22] = test: Antimicrobial activity against carbapenemases KPC-producing Klebsiella pneumoniae VA-406 infected in CD-1 mouse thigh infection model assessed as change in log10 CFU reduction per thigh treated 1.5 hr post infection at >=512:128 mg/kg, sc compound to NXL104 beta-lactamase inhibitor ratio after 24 hrs by acute lethal septicemia analysis (reference value: 8.67 log10CFU/thigh)
Klebsiella pneumoniae [23] = test: Antimicrobial activity against carbapenemases KPC-producing Klebsiella pneumoniae VA-406 infected in sc dosed CD-1 mouse in presence of 4 ug/ml NXL104 beta-lactamase inhibitor
Klebsiella pneumoniae [24] = test: Antimicrobial activity against carbapenemases KPC-producing Klebsiella pneumoniae VA-361 infected in sc dosed CD-1 mouse in presence of 4 ug/ml Tazobactam beta-lactamase inhibitor
Klebsiella pneumoniae [25] = test: Antimicrobial activity against carbapenemases KPC-producing Klebsiella pneumoniae VA-361 infected in CD-1 mouse thigh infection model assessed as change in log10 CFU reduction per thigh treated 1.5 hr post infection at >=128:32 mg/kg, sc compound to NXL104 beta-lactamase inhibitor ratio after 24 hrs by acute lethal septicemia analysis (reference value: 8.93 log10CFU/thigh)
Klebsiella pneumoniae [26] = test: Antimicrobial activity against carbapenemases KPC-producing Klebsiella pneumoniae VA-361 infected in sc dosed CD-1 mouse septicemia infection model by acute lethal septicemia analysis; details: VA-361, sc
Klebsiella pneumoniae [27] = test: Antimicrobial activity against carbapenemases KPC-producing Klebsiella pneumoniae VA-361 infected in sc dosed CD-1 mouse in presence of 1 ug/ml NXL104 beta-lactamase inhibitor
Klebsiella pneumoniae [28] = test: Antimicrobial activity against Klebsiella pneumoniae ATCC 13883 infected in sc dosed CD-1 mouse septicemia infection model by acute lethal septicemia analysis; details: ATCC 13883, sc
Klebsiella pneumoniae [29] = test: Antimicrobial activity against carbapenemases KPC-producing Klebsiella pneumoniae VA-361 infected in sc dosed CD-1 mouse in presence of 4 ug/ml cavulanate beta-lactamase inhibitor

CC(C)(O/N=C(\C(=O)N[C@@H]1C(=O)N2C(C(=O)[O-])=C(C[n+]3ccccc3)CS[C@H]12)c1csc(N)n1)C(=O)O [CEFTAZIDIME]
MIC (Klebsiella pneumoniae [1]): ≥ 512 µg/mL
ED50 (Klebsiella pneumoniae [2]): 1 mg/kg
MIC (Klebsiella pneumoniae [3]): 2 µg/mL
log10cfu (Klebsiella pneumoniae [4]): -1.02
log10cfu (Klebsiella pneumoniae [5]): 2.69
log10cfu (Klebsiella pneumoniae [6]): -0.46
MIC (Klebsiella pneumoniae [7]): 256 µg/mL (≈ 468 µM)
ED50 (Klebsiella pneumoniae [8]): 15.1 mg/kg
ED50 (Klebsiella pneumoniae [9]): 12.1 mg/kg
MIC (Klebsiella pneumoniae [10]): 0.25 µg/mL
MIC (Klebsiella pneumoniae [11]): 256 µg/mL
log10cfu (Klebsiella pneumoniae [12]): -0.85
ED50 (Klebsiella pneumoniae [13]): 709 mg/kg
ED50 (Klebsiella pneumoniae [14]): 8.1 mg/kg
ED50 (Klebsiella pneumoniae [15]): 29.5 mg/kg
MIC (Klebsiella pneumoniae [16]): 4 µg/mL
MIC (Klebsiella pneumoniae [17]): 8 µg/mL
MIC (Klebsiella pneumoniae [18]): 256 µg/mL
ED50 (Klebsiella pneumoniae [19]): 1.1 mg/kg
log10cfu (Klebsiella pneumoniae [20]): 2.33
ED50 (Klebsiella pneumoniae [21]): 0.62 mg/kg
log10cfu (Klebsiella pneumoniae [22]): -1.03
MIC (Klebsiella pneumoniae [23]): ≤ 0.06 µg/mL
MIC (Klebsiella pneumoniae [24]): 128 µg/mL
log10cfu (Klebsiella pneumoniae [25]): 1.88
ED50 (Klebsiella pneumoniae [26]): 1580 mg/kg
MIC (Klebsiella pneumoniae [27]): 8 µg/mL
ED50 (Klebsiella pneumoniae [28]): 1.9 mg/kg
MIC (Klebsiella pneumoniae [29]): 128 µg/mL
